Measured values reported in PubChem BioAssay (NCI).
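Five compound concentrations were applied to cells in 96-well plates for 48 hours; endpoints were derived by simple linear interpolation of the resulting dose-response curve. GI50 is the concentration that inhibits growth by half. TGI denotes the concentration required for complete inhibition of growth.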

Key:
Assay in all cases: NCI tumour cell line growth inhibition, 48 h
[1] = tested on: 786-0 renal
[2] = tested on: A498 renal
[3] = tested on: A549 NSCLC
[4] = tested on: ACHN renal
[5] = tested on: BT-549 breast
[6] = tested on: CAKI-1 renal
[7] = tested on: CCRF-CEM leukemia
[8] = tested on: COLO 205 colon
[9] = tested on: DU-145 prostate
[10] = tested on: EKVX NSCLC
[11] = tested on: HCC-2998 colon
[12] = tested on: HCT-116 colon
[13] = tested on: HCT-15 colon
[14] = tested on: HL-60(TB) leukemia
[15] = tested on: HOP-62 NSCLC
[16] = tested on: HOP-92 NSCLC
[17] = tested on: HS 578T breast
[18] = tested on: HT29 colon
[19] = tested on: IGROV1 ovarian
[20] = tested on: K-562 leukemia
[21] = tested on: KM12 colon
[22] = tested on: LOX IMVI melanoma
[23] = tested on: M14 melanoma
[24] = tested on: MALME-3M melanoma
[25] = tested on: MCF7 breast
[26] = tested on: MDA-MB-231 breast
[27] = tested on: MDA-MB-435
[28] = tested on: MOLT-4 leukemia
[29] = tested on: NCI-H226 lung

In the case of `COc1cc(NCCCN=C(N)NC(N)=NC(C)C)c2ncccc2c1`, the GI50 [1] is reported as 50.7 µM, the TGI [1] is reported as greater than 100 µM and the GI50 [2] is reported as 36.6 µM. It also gave a TGI [2] greater than 88.8 µM, a GI50 [3] of 56.7 µM and a TGI [3] greater than 100 µM. The GI50 [4] was greater than 82.8 µM, the TGI [4] was greater than 100 µM and the GI50 [5] was 10 µM. It also gave a TGI [5] of 22.8 µM, a GI50 [6] greater than 100 µM and a TGI [6] greater than 100 µM. For the same compound, the GI50 [7] was 7.61 µM, the TGI [7] was 45.7 µM and the GI50 [8] was 0.195 µM. It also gave a TGI [8] of 1.92 µM, a GI50 [9] of 33.9 µM and a TGI [9] greater than 100 µM. It also gave a GI50 [10] of 4.73 µM, a TGI [10] of 22 µM and a GI50 [11] of 3.29 µM. The TGI [11] was 22.1 µM, the GI50 [12] was 3.31 µM and the TGI [12] was 30.3 µM. For the same compound, the GI50 [13] was greater than 100 µM, the TGI [13] was greater than 100 µM and the GI50 [14] was 10.8 µM. The TGI [14] was 31.8 µM, the GI50 [15] was 35.2 µM and the TGI [15] was greater than 84.8 µM. It also gave a GI50 [16] of 2.54 µM, a TGI [16] of 26.5 µM and a GI50 [17] of 14 µM. It also gave a TGI [17] of 46.1 µM, a GI50 [18] of 6.38 µM and a TGI [18] greater than 100 µM. For the same compound, the GI50 [19] was 0.467 µM, the TGI [19] was 3.77 µM and the GI50 [20] was 7.56 µM. The TGI [20] was greater than 95.1 µM, the GI50 [21] was 0.633 µM and the TGI [21] was 11.2 µM. For the same compound, the GI50 [22] was 11.8 µM, the TGI [22] was 42.9 µM and the GI50 [23] was 27.4 µM. The TGI [23] was greater than 83.1 µM, the GI50 [24] was 0.813 µM and the TGI [24] was 4.1 µM. The TGI [25] was 0.0718 µM, the GI50 [26] was 1.96 µM and the TGI [26] was 14.3 µM. The GI50 [27] was 17.7 µM, the TGI [27] was 35 µM and the GI50 [28] was 6.62 µM. It also gave a TGI [28] greater than 47.5 µM, a GI50 [29] of 42.3 µM and a TGI [29] greater than 100 µM.
